From patent US8053627B2, “Methods for treating demyelination disorders” (University of Chicago, priority 2005, dated 2011)

System: myelinating oligodendrocytes in the CNS
Assay: Ectopic CNS expression of IFN-γ during development (released from doxycycline at E14), wild-type or PERK+/− background
Format: in vivo, mice
From the text: To study the effect of INF-γ on the myelination of oligodendrocytes during mouse development, transgenic mice that allow for temporally regulated delivery of IFN-γ to the CNS using the tetracycline (tet) controllable system (Lin, et al. (2004) J. Neurosci. 24: 10074-10083) were generated. To drive tTA expression in astrocytes, the transcriptional regulatory region of the glial fibrillary acidic protein (GFAP) gene was chosen (Brenner, et al. (1994) J. Neurosci. 14: 1030-1037). GFAP/tTA mice were mated with TRE/IFN-γ mice to produce animals hemizygous for both transgenes. When these mice are maintained on doxycycline (DOX+), expression of the IFN-γ transgene is repressed (FIG. 10A); when the double transgenic mice are released from doxycycline (DOX−) INF-γ is expressed. For the purpose of these experiments, mice received doxycycline up to day 14 of development (E14), at which time the experimental animals (DOX−) stopped receiving doxycycline, while the control animals (DOX+) were continuously fed the dug. The mRNA for IFN-γ could be detected in the DOX− mice as early as 10 days after birth (data not shown).
Real time PCR analysis was performed to determine the levels of expression of INF-γ, MHC-1, BIP, CHOP, and caspase 12. The primers for the PCR reactions for BIP, CHP and caspase 12 are given in example 1. The sense and antisense primers for INF-γ were […] (SEQ ID NO: 39) and […] (SEQ ID NO: 40), respectively; and the sense and antisense primers for MHC-1 were MHC-I sense primer: ATTCCCCAAAGGCCCATGT (SEQ ID NO: 1); and MHC-I antisense primer: […] (SEQ ID NO: 2).
Western blot analysis was performed on the CNS of 14 day old mice to determine the expression of caspase-12 as described in Example 6.
Brain and spinal cord tissue were analyzed using immunohistochemical methods as follows. Anesthetized mice were perfused through the left cardiac ventricle with 4% paraformaldehyde in 0.1M PBS. The half-saggital brains and transcervical spinal cord were removed, postfixed with paraformaldehyde, cryopreserved in 30% sucrose, embedded in OCT and frozen on dry ice. Frozen sections were cut in a cryostat at a thickness of 10 μm. Coronal sections at the fornix region of the corpus callosum corresponding to Sidman sections 241-251 were selected for use, and all comparative analyses were restricted to midline corpus callosum (Sidman, et al. (1971) Atlas of the Mouse Brain and Spinal Cord (Harvard Univ. Press, Cambridge, Mass.). For immunohistochemistry, frozen sections were treated with −20° C. acetone, blocked with PBS containing 10% NGS and 0.1% Triton X-100 and incubated overnight with the primary antibody diluted in blocking solution. Appropriate fluorochrome- or enzyme-labeled secondary antibodies (Vector Laboratories, Burlingame, Calif.) were used for detection. An antibody against CC1 (APC7, 1:50; EMD Biosciences, Inc., La Jolla, Calif.) was used as a marker for mature oligodendrocytes. Antibody against MBP (1:1000; Sternberger Monoclonals, Lutherville, Mass.) was used to verify the degree of myelination. Antibody against active-caspase-3 (1:50, Cell signaling Technology, Beverly, Mass.) was used as a marker for apoptotic cells. Fluorescent stained sections were mounted with Vectashield mounting medium with DAPI (Vector Laboratories) and visualized with a Zeiss Axioplan fluorescence microscope. Images were captured using a Photometrics PXL CCD camera connected to an Apple Macintosh computer using the Open Lab software suite. Immunopositive cells were quantified by counting positive cells within the median of the corpus callosum, confined to an area of 0.04 mm^2. Only those cells with nuclei observable by DAPI staining were counted. Each MBP immunostaining slide was scored on a scale of zero to four. A score of zero indicates complete demyelination, and a score of four indicates normal myelination in the corpus callosum of adult mice. […]

[1] = PERK+/− background, released from doxycycline at E14
[2] = wild-type background, released from doxycycline at E14

With “IFN-γ: pleotropic cytokine secreted by activated T lymphocytes and natural killer cells; delivered to the CNS by transgene or added as recombinant protein” the “BIP expression relative to control levels” value (CNS, PND 14, DOX− from E14) was “approximately 1.6 times”, the “CHOP expression relative to control levels” value (CNS, PND 14, DOX− from E14) was about 2 times and the caspase-12 expression (CNS, PND 14, DOX− from E14) was “strongly enhanced”. For the same substance, the state of myelination (DOX− double transgenic mice, wild-type background) was “mildly hypomyelinated”, the “decrease of oligodendrocyte numbers in the spinal cord (CC1)” value (PERK+/− background, 14-day-old) was “more than 50%” and the “mice that died by post natal day (PND) 27” value [1] was “more than 90%”. The “mice that experienced tonic seizures” value [1] was “approximately two-thirds”, the “unmyelinated axons in the spinal cord” value (PERK+/− mice expressing IFN-γ, 14-day-old) was 81%±14.9% and the “TUNEL positive oligodendrocytes in the cervical spinal cord, PERK+/− relative to wild-type background” value (released from doxycycline at E 14) was 2.5 times. For the same substance, the survival [2] was “normal survival” and the “unmyelinated axons in the spinal cord” value [2] was 30%±12.9%.
